Data taken from patent US11028090B2 (Dong Wha Pharm. Co., Ltd., priority 2017, dated 2021).
pIC50: −log10 of the molar value. Like-named read-outs stand apart in the source and are kept apart here.

Tests used:
[1] = target: BRD4 (BD1+BD2) bromodomain (Homo sapiens (Human), UniProt O60885); experiment: BRD4 binding inhibition (AlphaScreen, GST-BRD4 vs tetraacetylated histone H4 peptide)
Procedure, shortened: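 AlphaScreen read after 30 min dark incubation at room temperature with glutathione acceptor/streptavidin donor beads (10 μg/ml each). The beads were added to compound plus 100 nM biotin-H4 (K5,8,12,16-acetyl) peptide and 100 nM GST-BRD4 BD1+BD2 in pH 7.4 HEPES/Tween/BSA/DTT buffer.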

[2] = system: acute myelogenous leukemia cells (MV-4-11 cells)
[3] = system: acute myelogenous leukemia cells (MV-4-11 cells); experiment: Cytotoxicity to acute myelogenous leukemia cells (MV-4-11 cells), CCK-8; conditions: Homo sapiens, MV4-11, 72 h
[4] = system: thymus cancer cells (Ty-82 cells); experiment: Cytotoxicity to thymus cancer cells (Ty-82 cells), WST-1; conditions: Homo sapiens, TY82, 72 h
Experimental: The following experiment was performed to evaluate the cytotoxicity of [1,2,4]triazolo[4,3-a]quinoxaline derivative according to the present invention to thymus cancer cells (Ty-82 cells).
First, thymus cancer cells (Ty-82 cells) were distributed in a 96 well plate at the density of 2.5×10^4 cells/well. 24 hours later, the plated cells were treated with the compounds of the present invention dissolved in DMSO at the different concentrations ranging from 0.01 μM to 10 μM. 72 hours later, the activities of the compounds were determined using WST-1 reagent.

[5] = GST-BRD4 (BD1+BD2) / biotinylated acetyl-histone H4 (Lys5,8,12,16) peptide, read-out: IC50, BRD4 binding inhibition
[6] = GST-BRD4 (BD1+BD2) vs biotinylated acetyl-histone H4 peptide, AlphaScreen, read-out: BRD4 IC50
[7] = read-out: IC50, cytotoxicity against acute myelogenous leukemia cells
[8] = read-out: MV-4-11 Cytotoxicity IC50
[9] = read-out: IC50, cytotoxicity against thymus cancer cells
[10] = read-out: Ty-82 Cytotoxicity IC50

Structure (SMILES)	pIC50 [1, 5]	pIC50 [1, 6]	pIC50 [2]	pIC50 [3, 7]	pIC50 [3, 8]	pIC50 [4, 9]	pIC50 [4, 10]	pIC50 ([1]; IC50, BRD4 binding inhibition, GST-BRD4 (BD1+BD2) / biotinylated acetyl-histone H4 (Lys5,8,12,16) peptide)
COc1ccc2nc(NCCCCNC(=O)CC(C)(C)C)c3nnc(C)n3c2c1 [Example 124, [4-(8-methoxy-1-methyl-[1,2,4]triazolo[4,3-a]quinoxaline-4-ylamino)-butyl]-3,3-dimethyl-butyramide]	≥ 7.30	7.54	6.15	–	–	–	–	–
Cc1nnc2c(NCCCCNC(=O)CC(C)C)nc3cc4c(cc3n12)OCCO4 [Example 181, 3-methyl-N-[4-(1-methyl-8,9-dihydro-7,10-dioxa-2,3,5,11b-tetraaza-cyclopenta[a]anthracene-4-ylamino)-butyl]-butyramide]	≥ 7.30	7.77	–	≥ 6.70	7.30	≥ 6.30	6.52	–
Cc1nnc2c(NCCCCNC(=O)c3ccccc3)nc3cc4c(cc3n12)OCCO4 [Example 186, N-[4-(1-methyl-8,9-dihydro-7,10-dioxa-2,3,5,11b-tetraaza-cyclopenta[a]anthracene-4-ylamino)-butyl]-benzamide]	≥ 7.30	7.66	–	–	6.17	≥ 6.30	6.47	–
Cc1nnc2c(NCCCCNC(=O)OC3CCCC3)nc3cc4c(cc3n12)OCCO4 [Example 190, [4-(1-methyl-8,9-dihydro-7,10-dioxa-2,3,5,11b-tetraaza-cyclopenta[a]anthracene-4-ylamino)-butyl]-carbamic acid cyclopentylester]	≥ 7.30	7.55	–	≥ 6.70	7.05	–	6.19	–
Cc1nnc2c(NCCCCNC(=O)Oc3ccccc3)nc3cc4c(cc3n12)OCCO4 [Example 191, [4-(1-methyl-8,9-dihydro-7,10-dioxa-2,3,5,11b-tetraaza-cyclopenta[a]anthracene-4-ylamino)-butyl]-carbamic acid phenylester]	–	8.00	–	≥ 6.70	7.05	≥ 6.30	6.51	≥ 8.00
Cc1nnc2c(NCCCCNC(=O)[C@@H](O)C(C)C)nc3cc(N4CCSCC4)ccc3n12 [Example 525, N-[4-(7-thiomorphonyl-4-yl-1-methyl-[1,2,4]triazolo[4,3-a]quinoxaline-4-ylamino)-butyl]-2-(S)-hydroxy-3-methyl-butyramide]	≥ 7.30	7.96	6.70	–	–	–	–	–
CCc1nnc2c(NCCCCNC(=O)CC(C)C)nc3cc(OC)ccc3n12 [Example 622, [4-(7-methoxy-1-ethyl-[1,2,4]triazolo[4,3-a]quinoxaline-4-ylamino)-butyl]-3-methyl-butyramide]	≥ 7.30	7.70	6.54	–	–	–	–	–

The next lines start with results.

pIC50 [1, 5]	pIC50 [1, 6]	Structure (SMILES)	pIC50 [2]	pIC50 [3, 7]	pIC50 [3, 8]	pIC50 [4, 9]	pIC50 [4, 10]	pIC50 ([1]; IC50, BRD4 binding inhibition, GST-BRD4 (BD1+BD2) / biotinylated acetyl-histone H4 (Lys5,8,12,16) peptide)
≥ 7.30	7.47	Cc1nnc2c(NCCCCNC(=O)NC(C)C)nc3cc4c(cc3n12)OCCO4 [Example 192, 1-isopropyl-3-[4-(1-methyl-8,9-dihydro-7,10-dioxa-2,3,5,11b-tetraaza-cyclopenta[a]anthracene-4-ylamino)-butyl]-urea]	–	–	6.38	–	6.17	–
–	7.29	COc1ccc2c(c1)nc(NCCCCNC(=O)OC(C)C)c1nnc(C)n12 [Example 278, [4-(7-methoxy-1-methyl-[1,2,4]triazolo[4,3-a]quinoxaline-4-ylamino)-butyl]-carbamic acid isopropylester]	–	≥ 6.70	6.80	≥ 6.30	6.74	–
≥ 7.30	7.74	COc1ccc2c(c1)nc(NCCCCNC(=O)OCC(C)C)c1nnc(C)n12 [Example 279, [4-(7-methoxy-1-methyl-[1,2,4]triazolo[4,3-a]quinoxaline-4-ylamino)-butyl]-carbamic acid isobutylester]	–	≥ 6.70	6.85	≥ 6.30	6.92	–
≥ 7.30	7.77	COc1ccc2c(c1)nc(NCCCCNC(=O)CC(C)C)c1nnc(C)n12 [Example 285, N-[4-(7-methoxy-1-methyl-[1,2,4]triazolo[4,3-a]quinoxaline-4-ylamino)-butyl]-3-methyl-butyramide]	–	≥ 6.70	8.00	≥ 6.30	7.04	–
≥ 7.30	7.64	COc1cc2nc(NCCCCNC(=O)OC(C)C)c3nnc(C)n3c2cc1C [Example 467, [4-(7-methoxy-1,8-dimethyl-[1,2,4]triazolo[4,3-a]quinoxaline-4-ylamino)-butyl]-carbamic acid isopropylester]	–	≥ 6.70	7.18	≥ 6.30	6.70	–
≥ 7.30	7.66	COc1cc2nc(NCCCCNC(=O)OCC(C)C)c3nnc(C)n3c2cc1C [Example 468, [4-(7-methoxy-1,8-dimethyl-[1,2,4]triazolo[4,3-a]quinoxaline-4-ylamino)-butyl]-carbamic acid isobutylester]	–	≥ 6.70	7.14	≥ 6.30	6.64	–
–	7.26	COc1cc2nc(NCCCCNC(=O)CC(C)C)c3nnc(C)n3c2cc1C [Example 469, N-[4-(7-methoxy-1,8-dimethyl-[1,2,4]triazolo[4,3-a]quinoxaline-4-ylamino)-butyl]-3-methyl-butyramide]	–	≥ 6.70	8.00	≥ 6.30	7.03	–
≥ 7.30	7.62	Cc1nnc2c(NCCCCOC(=O)CC(C)(C)C)nc3ccccc3n12 [Example 633]	–	–	6.12	–	6.05	–
